Five molecules from ChEMBL document CHEMBL1201862, “PubChem BioAssay data set” (2004) can be followed below.

Experiment [1] in a line: Luminescence Cell-Based Dose Confirmation HTS to Identify Inhibitors of Platelet Dense Granule Release. [Related pubchem assays: 1663 (Primary HTS), 1678 (Summary of Project)]. The format is functional.
Experiment [2] deals with Low molecular weight phosphotyrosine protein phosphatase (Homo sapiens, UniProt P24666). The format is functional. Particulars: read-out: IC50_Mean.
Chain of Low molecular weight phosphotyrosine protein phosphatase (P24666 whole entry): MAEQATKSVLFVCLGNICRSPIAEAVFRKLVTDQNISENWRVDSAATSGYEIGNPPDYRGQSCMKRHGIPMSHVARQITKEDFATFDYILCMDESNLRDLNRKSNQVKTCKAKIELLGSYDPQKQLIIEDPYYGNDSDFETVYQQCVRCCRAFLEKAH
Experiment [3] has as its target Luciferin 4-monooxygenase (Photinus pyralis, UniProt P08659). Put plainly: firefly luciferase enzyme inhibitors, dose response, biochemical, luminescence (AID 1891).
The nature of experiment [4]: HEp-2 cell cytotoxicity, dose response, cytotoxicity control for RSV inhibitor project, HTS (AID 2410). The format is functional. The following applies: human respiratory syncytial virus.
In a further experiment the target is Paired box protein Pax-8 (Homo sapiens, UniProt Q06710). Put plainly: inhibitors of PAX8-driven TPO luciferase reporter, dose response, RMG-I cells, cherry-pick (AID 687027).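 Further: luciferase reporter driven by Pax8 target thyroperoxidase promoter measured by SteadyGlo luminescence.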 The format is functional, cell-based. In general terms: Reporter assays use an easily measured gene product as a stand-in for the process of interest.
Chain of Paired box protein Pax-8 (Q06710 whole entry): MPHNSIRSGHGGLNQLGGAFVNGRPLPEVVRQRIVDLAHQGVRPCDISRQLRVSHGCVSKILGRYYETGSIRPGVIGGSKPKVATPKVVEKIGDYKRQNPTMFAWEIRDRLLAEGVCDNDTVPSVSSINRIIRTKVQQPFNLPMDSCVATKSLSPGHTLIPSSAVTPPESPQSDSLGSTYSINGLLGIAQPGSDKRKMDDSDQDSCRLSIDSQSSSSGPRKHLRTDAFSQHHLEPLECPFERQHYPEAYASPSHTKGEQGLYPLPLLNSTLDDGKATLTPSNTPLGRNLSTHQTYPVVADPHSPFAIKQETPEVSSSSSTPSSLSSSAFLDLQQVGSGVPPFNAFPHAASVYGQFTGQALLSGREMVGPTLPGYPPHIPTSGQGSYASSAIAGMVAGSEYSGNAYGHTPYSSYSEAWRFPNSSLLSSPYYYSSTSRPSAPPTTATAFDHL
Experiment [5] has as its target Heat shock protein HSP 90-alpha (Homo sapiens, UniProt P07900). The format is functional, organism-based.
The target in another experiment is Protein S100-A4 (Homo sapiens, UniProt P26447). As to the kind of experiment: S100A4-myosin IIA binding inhibitor potency, dose response, biochemical, fluorescence polarization, cherry-picked hits (AID 687001). The format is functional. Background: Polarisation of emitted light reports the rotation of a fluorescent probe.
Chain of Protein S100-A4 (P26447 whole entry): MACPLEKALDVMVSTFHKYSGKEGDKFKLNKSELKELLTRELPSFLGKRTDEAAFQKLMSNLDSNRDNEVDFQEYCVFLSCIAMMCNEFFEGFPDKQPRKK
Experiment [6] concerns the target T1, Genome polyprotein (Hepatitis C virus, UniProt Q2Q167).
T1 sequence (Q2Q167 whole entry): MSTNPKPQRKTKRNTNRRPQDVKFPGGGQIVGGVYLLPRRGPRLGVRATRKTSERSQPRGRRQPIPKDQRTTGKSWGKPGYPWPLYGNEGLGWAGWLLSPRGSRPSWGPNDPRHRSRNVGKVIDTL
Put plainly: Late stage assay provider counterscreen results for the probe development effort to identify inhibitors of Hepatitis C Virus (HCV) core protein dimerization: Luminescence-based biochemical AlphaScreen assay to identify inhibitors of HCV core dimerization. The format is functional, Hepacivirus hominis.

Experiment [7] has as its target T1, Genome polyprotein. As to the kind of experiment: HCV core protein dimerization inhibitors, dose response, biochemical, TR-FRET (AID 2159).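 Further: blocks dimerization of HCV core protein measured by TR-FRET between tagged core106 pairs.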 Also on record: species or system Hepacivirus hominis. A general note: In TR-FRET formats the signal depends on donor and acceptor labels being close together.
The nature of experiment [8]: control 3'UTR Renilla luciferase suppression, dose response, counter-screen for Shn3 inhibitor project, cell-based, Clone20-Shn3RL, cherry-picked (AID 624133). The format is functional.
For experiment [9], the target named is T2, Interleukin-8 (Homo sapiens, UniProt P10145). Put plainly: Dose Response confirmation of uHTS small molecule hits for cystic fibrosis induced NFkb Inhibitors in a TNFa-induced IL8 counterscreen. The format is functional. Particulars: read-out: IC50_Mean.
T2 sequence (P10145 whole entry): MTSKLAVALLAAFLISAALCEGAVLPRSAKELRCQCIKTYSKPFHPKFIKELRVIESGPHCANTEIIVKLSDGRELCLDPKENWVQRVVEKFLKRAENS
Experiment [10] can be described thus: Shn3 3'UTR reporter inhibitors, dose response, cell-based, Clone20 osteoblasts, firefly luciferase, cherry-picked (AID 624132).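 Further: firefly luciferase luminescence from reporter carrying the Shn3 3'UTR in osteoblasts.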 The format is functional.
For experiment [11], the target named is T2, Interleukin-8. Put plainly: Dose Response confirmation of uHTS small molecule hits for cystic fibrosis induced NFkb Inhibitors in a PAF-induced IL8 counterscreen. The format is functional. Particulars: read-out: IC50_Mean.
Experiment [12] is described as follows: HepG2 cell cytotoxicity, dose response, cytotoxicity control, plate reader, cherry-pick, antagonist series (AID 743416). The format is functional, cell-based.
Experiment [13] can be described thus: LGR2 antagonists, dose response, cell-based, HEK293, CRE-luciferase reporter, cherry pick, set 2 (AID 743343).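 Further: transfected cells were stimulated with diluted bursicon conditioned medium after compound addition.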 The format is functional.
A short description of experiment [14]: HEK293 cell cytotoxicity, dose response, cytotoxicity control, plate reader, cherry-picked samples (AID 743446). The format is functional, cell-based.
The target of experiment [15] is T3, Microphthalmia-associated transcription factor (Homo sapiens, UniProt O75030).
T3 sequence (O75030 whole entry): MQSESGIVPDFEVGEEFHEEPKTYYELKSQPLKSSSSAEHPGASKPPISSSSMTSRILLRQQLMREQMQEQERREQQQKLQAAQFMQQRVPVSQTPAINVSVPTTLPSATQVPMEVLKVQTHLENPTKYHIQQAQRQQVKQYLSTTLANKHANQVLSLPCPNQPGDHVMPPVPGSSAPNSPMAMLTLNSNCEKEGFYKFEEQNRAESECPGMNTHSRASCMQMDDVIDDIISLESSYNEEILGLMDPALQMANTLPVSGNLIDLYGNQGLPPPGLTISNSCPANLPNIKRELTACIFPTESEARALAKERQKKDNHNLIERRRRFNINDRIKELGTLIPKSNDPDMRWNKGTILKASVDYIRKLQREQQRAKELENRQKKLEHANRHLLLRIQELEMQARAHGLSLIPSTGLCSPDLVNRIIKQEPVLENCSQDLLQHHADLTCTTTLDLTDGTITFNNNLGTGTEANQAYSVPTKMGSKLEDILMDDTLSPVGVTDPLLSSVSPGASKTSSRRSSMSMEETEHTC
As to the kind of experiment: TRPM1 promoter luciferase signal decrease, dose response, MITF inhibitor project, cell-based, SK-MEL-5, cherry-picked, set 3 (AID 493073).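 Further: SK-MEL-5 melanoma cells with luciferase driven by the MITF target TRPM1 promoter.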 The format is functional.

The nature of experiment [16]: A549 cell cytotoxicity, dose response, cytotoxicity control, plate reader, cherry-pick, antagonist series (AID 743412). The format is functional, cell-based.
Experiment [17] in a line: HepG2 cell cytotoxicity, dose response, cytotoxicity control for Shn3 inhibitor project, CellTiter-Glo, cherry-picked (AID 624134). The format is functional, cell-based.
The nature of experiment [18]: MC4R antagonists, dose response, counter-screen for LGR2 antagonist project, cell-based, plate reader, cherry pick (AID 743444).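 Further: transfected HEK 293 cells stimulated with alpha-MSH peptide; potency of inhibitors of the alpha-MSH evoked signal.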 The format is functional.
In experiment [19] the target is T4, Heat shock factor protein 1 (Mus musculus, UniProt P38532).
T4 sequence (P38532 whole entry): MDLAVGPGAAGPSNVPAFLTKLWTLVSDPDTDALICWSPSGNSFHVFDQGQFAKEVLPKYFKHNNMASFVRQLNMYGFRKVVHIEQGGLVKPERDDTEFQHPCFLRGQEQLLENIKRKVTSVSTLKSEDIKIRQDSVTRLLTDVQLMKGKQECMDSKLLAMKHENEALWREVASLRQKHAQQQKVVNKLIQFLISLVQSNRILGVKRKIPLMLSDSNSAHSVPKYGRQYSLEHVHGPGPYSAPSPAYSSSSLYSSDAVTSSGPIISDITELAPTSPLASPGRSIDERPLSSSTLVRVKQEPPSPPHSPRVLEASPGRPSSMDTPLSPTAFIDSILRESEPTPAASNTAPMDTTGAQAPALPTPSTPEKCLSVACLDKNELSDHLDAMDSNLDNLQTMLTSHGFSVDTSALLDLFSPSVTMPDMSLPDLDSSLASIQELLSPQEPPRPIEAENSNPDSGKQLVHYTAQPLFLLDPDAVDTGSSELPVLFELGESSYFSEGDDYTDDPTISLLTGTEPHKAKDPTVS
Put plainly: inhibition of MG132-induced HSE-luciferase signal, confirmation, cell-based, NIH3T3, luminescence, dose retest (AID 2382).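 Further: NIH3T3 fibroblasts with HSF1-driven luciferase reporter stressed by proteasome inhibitor MG132; luminescence from HSF1-driven luciferase expression after 8 hours of MG132 stress.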 The format is functional.

Experiment [20] can be described thus: NIH/3T3 fibroblast cytotoxicity, dose response, cytotoxicity control for T. cruzi growth inhibitor project, cell-based, cherry-pick samples, set 2 (AID 651817). The format is functional. The following applies: NIH3T3.
A short description of experiment [21]: intracellular Trypanosoma cruzi inhibitors in host cells – cell-based, plate reader, cherry-pick samples, set 3, dose response (AID 651818).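 Further: compounds incubated with infected cells for about four days.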 The format is functional.

Calls of active or inactive are those of the source.

Chain of Luciferin 4-monooxygenase (P08659 whole entry): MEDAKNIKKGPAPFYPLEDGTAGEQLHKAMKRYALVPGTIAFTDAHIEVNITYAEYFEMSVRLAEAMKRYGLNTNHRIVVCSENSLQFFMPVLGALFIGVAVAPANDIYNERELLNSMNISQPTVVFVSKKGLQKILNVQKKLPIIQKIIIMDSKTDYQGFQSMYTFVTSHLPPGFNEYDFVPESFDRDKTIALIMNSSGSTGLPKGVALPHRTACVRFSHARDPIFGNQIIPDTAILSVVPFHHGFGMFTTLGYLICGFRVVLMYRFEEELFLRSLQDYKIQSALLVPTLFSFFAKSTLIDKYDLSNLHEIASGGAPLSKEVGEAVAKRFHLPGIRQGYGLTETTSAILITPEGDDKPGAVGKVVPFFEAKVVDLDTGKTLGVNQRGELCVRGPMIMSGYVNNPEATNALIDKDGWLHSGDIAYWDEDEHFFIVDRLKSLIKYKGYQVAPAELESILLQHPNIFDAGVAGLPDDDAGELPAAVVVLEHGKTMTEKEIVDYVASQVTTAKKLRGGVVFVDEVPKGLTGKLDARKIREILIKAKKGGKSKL

In the case of `Cc1cccc2nc(-c3ccccc3)nc(N[C@@H](CO)c3ccccc3)c12`, the concentration giving a half-maximal response (EC50) in experiment [1] and in [3] was > 112 µM (not active) each time. Besides, the IC50 in [2] was 17 µM (active). The CC50 (in general, the concentration giving 50% cytotoxicity) in [4] was 19 µM (active).

Take `COc1cccc2c1C(=O)c1c(O)c3c(c(O)c1C2=O)CC(O)(C(=O)CO)CC3OC1CC(N(C)C)C(O)C(C)O1` (centres undefined): the AC50 (usually the concentration giving half of the maximal activity seen) on Paired box protein Pax-8 is 0.833 µM (active); in experiment [5], 0.296 µM (active); on Protein S100-A4, 0.257 µM (active).

In the case of `CC1=C(/C=C/C(C)=C/C=C/C(C)=C/C=C/C=C(C)/C=C/C=C(C)/C=C/C2=C(C)CCCC2(C)C)C(C)(C)CCC1` [BETA CAROTENE], the figures for the IC50 at Genome polyprotein [6] and at Genome polyprotein [7] were 34.8 µM (inactive) and 29.7 µM (not active), respectively.

As for `O=C(c1nnsc1S(=O)(=O)c1ccc(Cl)cc1)N1CCOCC1`, the AC50 in experiment [8] was 12.2 µM (active); on Paired box protein Pax-8 it was 6.05 µM (active); in experiment [10] it was 7.74 µM (active); in experiment [12] it was 15.3 µM (active); in experiment [13] it was 4.76 µM (active); in [14], 15.3 µM (active). For the same molecule, the AC50 in experiment [15] was 9.51 µM (active); in experiment [16], 13.9 µM (active); in [17], 31.7 µM (active); in [18], 5.75 µM (active). Further, the IC50 was 1.19 µM (active) at Interleukin-8 [9] and 1.25 µM (active) on Interleukin-8 [11]. The EC50 (commonly the concentration giving half of the maximal effect) in [19] is recorded as > 195 µM (not active).

Consider `Cc1ccc(S(=O)(=O)N(C)C[C@H]2Oc3ccc(NS(=O)(=O)c4ccc(Cl)cc4)cc3CC(=O)N([C@H](C)CO)C[C@H]2C)cc1`, for which the AC50 in experiment [20] was 39 µM (inactive); in experiment [21] it was 2.35 µM (active).
